Test results reported in ChEMBL document CHEMBL1201862, “PubChem BioAssay data set” (2004).
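Method: 48-hour compound exposure of cells in 96-well plates, five concentrations, linear interpolation of endpoints. Abbreviation: GI50, concentration required for 50% inhibition of growth.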 Activity calls are given as the source filed them. No stated cut-off is given here; in the data, active = GI50 up to about 1.1 µM and inactive = higher.

Tests used:
Experiment in all cases: growth of human tumour cells (NCI), 48 h
[1] = tested on: HOP-62
[2] = tested on: DMS-273
[3] = tested on: NCI-H23
[4] = tested on: OVCAR-5
[5] = tested on: LOX IMVI
[6] = tested on: KM12
[7] = tested on: UACC-62
[8] = tested on: ACHN
[9] = tested on: EKVX
[10] = tested on: M14
[11] = tested on: SNB-19
[12] = tested on: CAKI-1
[13] = tested on: BT-549
[14] = tested on: NCI-H522
[15] = tested on: MDA-MB-231
[16] = tested on: T47D
[17] = tested on: NCI/ADR-RES
[18] = tested on: NCI-H226
[19] = tested on: HOP-92
[20] = tested on: HCT-116

Row | SMILES | GI50 [1] | GI50 [2] | GI50 [3] | GI50 [4] | GI50 [5] | GI50 [6] | GI50 [7] | GI50 [8] | GI50 [9] | GI50 [10] | GI50 [11] | GI50 [12] | GI50 [13] | GI50 [14] | GI50 [15] | GI50 [16] | GI50 [17] | GI50 [18] | GI50 [19] | GI50 [20]
1 | CCOc1ccc(NC2=NC(=O)C(CC(=O)Nc3ccc(Cl)cc3Cl)S2)cc1 (centres undefined) | > 100 µM (inactive) | > 100 µM (inactive) | > 100 µM (inactive) | > 100 µM (inactive) | > 100 µM (inactive) | > 100 µM (inactive) | > 100 µM (inactive) | > 100 µM (inactive) | > 100 µM (inactive) | > 100 µM (inactive) | > 100 µM (inactive) | > 100 µM (inactive) | – | – | – | – | – | – | – | –
2 | Cc1cc2c(cc1C)C(=O)/C(=N/Nc1ccc(F)cc1)CCO2 | > 100 µM (inactive) | – | > 100 µM (inactive) | > 100 µM (inactive) | 65.8 µM (inactive) | > 100 µM (inactive) | > 100 µM (inactive) | > 100 µM (inactive) | > 100 µM (inactive) | 87.5 µM (inactive) | > 100 µM (inactive) | > 100 µM (inactive) | > 100 µM (inactive) | > 100 µM (inactive) | > 100 µM (inactive) | 5.04 µM (inactive) | > 100 µM (inactive) | > 100 µM (inactive) | > 100 µM (inactive) | > 100 µM (inactive)
3 | Cc1cc(C)nc(NS(=O)(=O)c2ccc(Nc3c4ccccc4nc4ccc(C(=O)Nc5ccc(S(=O)(=O)N=C(N)N)cc5)cc34)cc2)n1 | > 100 µM (inactive) | – | > 100 µM (inactive) | > 100 µM (inactive) | 17 µM (inactive) | > 100 µM (inactive) | > 100 µM (inactive) | > 100 µM (inactive) | > 100 µM (inactive) | > 100 µM (inactive) | > 100 µM (inactive) | > 100 µM (inactive) | 30.5 µM (inactive) | 65.8 µM (inactive) | 81.8 µM (inactive) | 38.2 µM (inactive) | > 100 µM (inactive) | > 100 µM (inactive) | 26 µM (inactive) | 70.1 µM (inactive)
4 | COc1cc2ccc(CC(=O)O)cc2cc1OC | > 100 µM (inactive) | > 100 µM (inactive) | > 100 µM (inactive) | – | – | > 100 µM (inactive) | > 100 µM (inactive) | > 100 µM (inactive) | > 100 µM (inactive) | > 100 µM (inactive) | > 100 µM (inactive) | > 100 µM (inactive) | – | > 100 µM (inactive) | – | – | – | > 100 µM (inactive) | – | > 100 µM (inactive)
5 | N#CN1C2CCC1CC(=O)C2 | > 100 µM (inactive) | – | > 100 µM (inactive) | > 100 µM (inactive) | > 100 µM (inactive) | > 100 µM (inactive) | > 100 µM (inactive) | > 100 µM (inactive) | > 100 µM (inactive) | > 100 µM (inactive) | > 100 µM (inactive) | > 100 µM (inactive) | > 100 µM (inactive) | > 100 µM (inactive) | > 100 µM (inactive) | > 100 µM (inactive) | > 100 µM (inactive) | > 10 µM (inactive) | > 100 µM (inactive) | > 100 µM (inactive)
6 | CCN(CC)CCCNc1nncc2c(C)c3[nH]c4ccc(OC)cc4c3cc12 | 0.525 µM (active) | – | 0.421 µM (active) | 1.25 µM (inactive) | 0.189 µM (active) | 0.592 µM (active) | 1.29 µM (inactive) | 1.08 µM (active) | 2.11 µM (inactive) | 1.61 µM (inactive) | 0.318 µM (active) | 8.41 µM (inactive) | 1.54 µM (inactive) | 0.0256 µM (active) | 0.716 µM (active) | 0.286 µM (active) | 38.8 µM (inactive) | 0.0557 µM (active) | 0.369 µM (active) | 0.277 µM (active)
7 | Oc1ccccc1/C=N/c1ccccc1/N=C/c1ccccc1O | > 100 µM (inactive) | 85.9 µM (inactive) | 38.3 µM (inactive) | – | > 100 µM (inactive) | > 100 µM (inactive) | – | 30.2 µM (inactive) | > 100 µM (inactive) | > 100 µM (inactive) | 34.4 µM (inactive) | – | – | 16.7 µM (inactive) | – | – | – | 65.6 µM (inactive) | – | > 100 µM (inactive)
8 | COc1ccc([N+](=O)[O-])c2c(NCCCN(C)C)c3ccccc3nc12 | 0.0998 µM (active) | – | 0.0625 µM (active) | 0.272 µM (active) | 0.461 µM (active) | 0.0991 µM (active) | 0.127 µM (active) | 0.13 µM (active) | 0.107 µM (active) | 0.183 µM (active) | 0.202 µM (active) | 0.333 µM (active) | 0.701 µM (active) | 0.0286 µM (active) | 0.466 µM (active) | 0.2 µM (active) | 2.87 µM (inactive) | 0.225 µM (active) | 0.0782 µM (active) | 0.112 µM (active)
9 | CCN(C(=O)N[C@H](C(=O)N[C@@H](CSC)C(=O)N[C@@H](C)C(=O)OC)C(C)C)c1ccccc1 | 19.8 µM (inactive) | – | 17.8 µM (inactive) | 15.5 µM (inactive) | 10.4 µM (inactive) | 15.3 µM (inactive) | 13.8 µM (inactive) | 15.6 µM (inactive) | 13.5 µM (inactive) | 14.2 µM (inactive) | 19.3 µM (inactive) | 20 µM (inactive) | 18.1 µM (inactive) | 10.2 µM (inactive) | 15.1 µM (inactive) | 26.4 µM (inactive) | > 100 µM (inactive) | 16.3 µM (inactive) | 12.8 µM (inactive) | 16.7 µM (inactive)
10 | Cc1c(Cl)c(C)c(Cl)c(O)c1Cl | 31.9 µM (inactive) | – | 28.1 µM (inactive) | 35.2 µM (inactive) | 26.2 µM (inactive) | 26.3 µM (inactive) | 16.7 µM (inactive) | 22.8 µM (inactive) | 26.4 µM (inactive) | 20.5 µM (inactive) | 30.5 µM (inactive) | 21.4 µM (inactive) | 24.3 µM (inactive) | 17.9 µM (inactive) | 27 µM (inactive) | 24.8 µM (inactive) | 22.2 µM (inactive) | 15.1 µM (inactive) | 19.1 µM (inactive) | 18.2 µM (inactive)
11 | COc1ccc2c(c1)CC[C@@H]1C2CC[C@]2(C)OC(=O)CCC12 (some centres undefined) | 25 µM (inactive) | – | 12.6 µM (inactive) | 13.3 µM (inactive) | 6.67 µM (inactive) | 32.2 µM (inactive) | 20.2 µM (inactive) | 50.8 µM (inactive) | 7.73 µM (inactive) | 13.2 µM (inactive) | 17.4 µM (inactive) | 31.6 µM (inactive) | 11.4 µM (inactive) | 6.07 µM (inactive) | 2.45 µM (inactive) | 34.6 µM (inactive) | 14.9 µM (inactive) | 11.7 µM (inactive) | 13 µM (inactive) | 8.89 µM (inactive)
12 | COC(=O)C1=C(C)NC(C)=C(C(=O)OC)C1c1cccc(N=O)c1 | 21.1 µM (inactive) | – | 19.5 µM (inactive) | 18 µM (inactive) | 17.4 µM (inactive) | 16.6 µM (inactive) | 14.3 µM (inactive) | 14.5 µM (inactive) | 20.1 µM (inactive) | 13.9 µM (inactive) | 75.5 µM (inactive) | 10.6 µM (inactive) | 17 µM (inactive) | 3.18 µM (inactive) | 14.4 µM (inactive) | 11.6 µM (inactive) | 22.5 µM (inactive) | 16.3 µM (inactive) | 7.69 µM (inactive) | 11 µM (inactive)
13 | COc1cccc2c(=O)c3c(n(C)c12)OC(C(C)C)C3 (centres undefined) | > 100 µM (inactive) | – | > 100 µM (inactive) | > 100 µM (inactive) | > 100 µM (inactive) | 99.5 µM (inactive) | > 100 µM (inactive) | 63 µM (inactive) | 89.5 µM (inactive) | > 100 µM (inactive) | 69.7 µM (inactive) | 42.8 µM (inactive) | > 100 µM (inactive) | > 100 µM (inactive) | > 100 µM (inactive) | 87.3 µM (inactive) | 55.7 µM (inactive) | 83.2 µM (inactive) | > 100 µM (inactive) | > 100 µM (inactive)
14 | C=CC(COC(=O)C(C)(C)OC(C)=O)c1ccc(OC(=O)C(C)C)c(OC)c1 (centres undefined) | 10.1 µM (inactive) | – | 18.8 µM (inactive) | 14.6 µM (inactive) | 3.17 µM (inactive) | 4.07 µM (inactive) | 11.8 µM (inactive) | 2.88 µM (inactive) | 12.7 µM (inactive) | 6.43 µM (inactive) | 11.1 µM (inactive) | 1.96 µM (inactive) | 8.87 µM (inactive) | 2.23 µM (inactive) | 2.64 µM (inactive) | 3.84 µM (inactive) | 11 µM (inactive) | 18.2 µM (inactive) | 2.73 µM (inactive) | 4.05 µM (inactive)
15 | C/C(=N\Nc1ccc([N+](=O)[O-])cc1[N+](=O)[O-])c1sc(-n2nc(-c3ccccc3)cc2-c2ccccc2)nc1C | 70.3 µM (inactive) | – | 32.9 µM (inactive) | > 100 µM (inactive) | 11.9 µM (inactive) | 11.3 µM (inactive) | 53.6 µM (inactive) | 16.6 µM (inactive) | 26.5 µM (inactive) | 56.4 µM (inactive) | 93.5 µM (inactive) | 20 µM (inactive) | 36.9 µM (inactive) | 22 µM (inactive) | 44.4 µM (inactive) | 13.8 µM (inactive) | 21.9 µM (inactive) | 34.1 µM (inactive) | 23.9 µM (inactive) | 29.4 µM (inactive)
16 | CN(C)CCOc1ccc2[nH]c(C(=O)N3CC(CCl)c4ccc(N)cc43)cc2c1 (centres undefined) | 0.0356 µM (active) | – | 0.0562 µM (active) | 0.141 µM (active) | 0.0601 µM (active) | 0.0733 µM (active) | 0.0753 µM (active) | 0.0281 µM (active) | 0.231 µM (active) | 0.145 µM (active) | 0.258 µM (active) | 0.0489 µM (active) | 0.192 µM (active) | 0.0154 µM (active) | 1.39 µM (inactive) | 0.0424 µM (active) | 0.0933 µM (active) | 0.0776 µM (active) | 0.36 µM (active) | 0.0354 µM (active)
